Experimental data reported in PMC7048285, “Lack of an association between clinical INSTI-related body weight gain and direct interference with MC4 receptor (MC4R), a key central regulator of body weight” (PLoS ONE, 2020).

How the values were obtained:
[1] = target: T1, human recombinant melanocortin MC4 receptor (Homo sapiens, UniProt P32245); experiment: Functional cellular cAMP TR-FRET assay, antagonist mode (inhibition of 10 nM NDP-α-MSH response); format: cell-based; details: for Antagonist Fold-margin on human Cmax (unbound): antagonist IC50 divided by clinical Cmax (unbound)
T1 construct: host or cells: frozen, irradiated CHO-K1 cells

[2] = human plasma; cited from earlier work
[3] = Human clinical Cmax at recommended clinical dosage; format: in vivo; details: unbound (protein-free)
[4] = target: T2, human MC4R (Homo sapiens, UniProt P32245); experiment: Biochemical radioligand binding assay ([125I]NDP-α-MSH) on membranes of transfected CHO cells; parameters: host or cells: CHO cells (membrane homogenates); details: for % inhibition of binding at 100 µM: 100 µM test compound, % inhibition of [125I]NDP-α-MSH specific binding; for IC50: radioligand binding, 0.05 nM [125I]NDP-α-MSH, 8 concentrations
[5] = read-out: Human efficacious Cmax; total plasma, at recommended clinical dosage; cited from earlier work
[6] = target: T1, human recombinant melanocortin MC4 receptor; experiment: Functional cellular cAMP TR-FRET assay, agonist mode; format: cell-based; details: for Agonist Fold-margin on human Cmax (unbound): agonist IC50 divided by clinical Cmax (unbound); for IC50: cAMP increase relative to 3 μM NDP-α-MSH control, CHO-K1 cells
[7] = system: cynomolgous monkeys; details: daily oral, 39 weeks, AUC 16- to 30-fold clinical exposure at 50 mg; cited from earlier work
[8] = system: mice; details: daily oral, 4 weeks, AUC 16- to 30-fold clinical exposure at 50 mg; cited from earlier work
[9] = system: rats; details: daily oral, 26 weeks, AUC 16- to 30-fold clinical exposure at 50 mg; cited from earlier work
[10] = target: T2, human MC4R; parameters: method as in earlier work; details: 10 μM; previously reported; cited from earlier work

T1 sequence (P32245 whole entry): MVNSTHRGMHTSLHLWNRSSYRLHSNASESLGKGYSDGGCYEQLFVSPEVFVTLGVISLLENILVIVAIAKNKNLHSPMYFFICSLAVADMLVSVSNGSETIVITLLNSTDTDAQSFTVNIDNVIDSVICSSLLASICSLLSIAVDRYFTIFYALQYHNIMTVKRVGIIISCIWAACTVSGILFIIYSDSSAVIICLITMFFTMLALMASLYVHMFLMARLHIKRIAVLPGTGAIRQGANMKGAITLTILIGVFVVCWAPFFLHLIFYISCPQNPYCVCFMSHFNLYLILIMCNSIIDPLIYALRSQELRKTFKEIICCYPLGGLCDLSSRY
T2 sequence (P32245 whole entry): as above

Question: With `C[C@H]1CO[C@@H]2Cn3cc(C(=O)NCc4ccc(F)cc4F)c(=O)c(O)c3C(=O)N12` [CAB, cabotegravir] as the molecule, how does the IC50 [1] read?
Answer: > 30 µM

Question: And the “Antagonist Fold-margin on human Cmax (unbound)” value [1]?
Answer: >1200 fold

Question: And the “% unbound” value [2]?
Answer: 0.16%

Question: And the “Human efficacious unbound Cmax” value [3]?
Answer: 0.025 µM

Question: What about the “% inhibition of binding at 100 µM” value [4] of the same molecule?
Answer: 86%

Question: What about the IC50 [4] of the same molecule?
Answer: 0.46 µM

Question: What about the Cmax [5] of the same molecule?
Answer: 15.7 µM

Question: What about the “Agonist Fold-margin on human Cmax (unbound)” value [6] of the same molecule?
Answer: >1200 fold

Question: What about the IC50 [6] of the same molecule?
Answer: > 30 µM

Question: For `Cc1nnc(C(=O)NC(C)(C)c2nc(C(=O)NCc3ccc(F)cc3)c(O)c(=O)n2C)o1` [RAL, raltegravir], which IC50 [1] is on record?
Answer: > 300 µM

Question: And the “% inhibition of binding at 100 µM” value [4]?
Answer: 55%

Question: What about the IC50 [4] of the same molecule?
Answer: 78 µM

Question: What about the Cmax [5] of the same molecule?
Answer: 15.7 µM

Question: And the IC50 [6]?
Answer: > 300 µM

Question: With `O=C(NCc1c(F)cc(F)cc1F)c1cn2c(c(O)c1=O)C(=O)N1[C@H]3CC[C@H](C3)O[C@@H]1C2` [BIC, bictegravir] as the molecule, how does the IC50 [1] read?
Answer: > 100 µM

Question: And the “% unbound” value [2]?
Answer: 0.25%

Question: And the “Human efficacious unbound Cmax” value [3]?
Answer: 0.034 µM

Question: And the “effects on body weight gain” value [7]?
Answer: no effects on body weight gain

Question: What about the “effects on body weight gain” value [8] of the same molecule?
Answer: no effects on body weight gain

Question: What about the “% inhibition of binding at 100 µM” value [4] of the same molecule?
Answer: 89%

Question: And the IC50 [4]?
Answer: 4.9 µM

Question: And the Cmax [5]?
Answer: 13.7 µM

Question: And the “effects on body weight gain” value [9]?
Answer: no effects on body weight gain

Question: What about the “Agonist Fold-margin on human Cmax (unbound)” value [6] of the same molecule?
Answer: >2900 fold

Question: And the IC50 [6]?
Answer: > 100 µM

Question: With `C[C@@H]1CCO[C@H]2Cn3cc(C(=O)NCc4ccc(F)cc4F)c(=O)c(O)c3C(=O)N12` [DTG, dolutegravir] as the molecule, how does the IC50 [1] read?
Answer: 69.4 µM

Question: And the “Antagonist Fold-margin on human Cmax (unbound)” value [1]?
Answer: 1120 fold

Question: What about the “% unbound” value [2] of the same molecule?
Answer: 0.7%

Question: What about the “Human efficacious unbound Cmax” value [3] of the same molecule?
Answer: 0.062 µM

Question: What about the “% inhibition of binding at 100 µM” value [4] of the same molecule?
Answer: 91%

Question: What about the IC50 [4] of the same molecule?
Answer: 1.7 µM

Question: And the Cmax [5]?
Answer: 8.8 µM

Question: And the “Agonist Fold-margin on human Cmax (unbound)” value [6]?
Answer: >1600 fold

Question: What about the IC50 [6] of the same molecule?
Answer: > 100 µM

Question: What about the inhibition binding value [10] of the same molecule?
Answer: 64%

Question: Which IC50 ([1]; inhibition of 10 nM NDP-α-MSH induced cAMP response, CHO-K1 cells) does the source give for “agouti-related protein (SSRRCVRLHESCLGQQVPCCDPCATCYCRFFNAFCYCRKLGTAMNPCSRT; UniProt O00253 83-132, looked up) [AgRP]” here?
Answer: 0.012 µM

Question: What does the source list for `COc1cc2c(cc1Cc1cccc(Cl)c1F)c(=O)c(C(=O)O)cn2[C@H](CO)C(C)C` [EVG, elvitegravir]?
Answer: IC50 [1]: 2.75 µM; fold more potent in MC4R antagonism than DTG ([1]; EVG versus DTG): approximately 25 fold; Antagonist Fold-margin on human Cmax (unbound) [1]: 120 fold; % unbound [2]: 0.48%; Human efficacious unbound Cmax [3]: 0.0225 µM; % inhibition of binding at 100 µM [4]: 56%; IC50 [4]: 13 µM; Cmax [5]: 4.7 µM; Agonist Fold-margin on human Cmax (unbound) [6]: >13000 fold; IC50 [6]: > 300 µM
